Experimental data published in PMC10974795 (2024).

Test system: Apt-WO-06 (AWO-06) (DNA, aptamer) GTGAGTTTACATGGGGTCCTATAGGCGAACAATCG
Test: graphene oxide fluorescence recovery
Conditions: buffer composition not stated; aptamer 0.5-30 nM titrated; displaced from graphene oxide; apparent

With CC1COc2c(N3CCN(C)CC3)c(F)cc3c(=O)c(C(=O)O)cn1c23 (stereo not shown) the Kd was 28.16 nM.
